Laboratory results taken from patent publication US8895568B2, “Compositions comprising substituted pteridines as agrochemicals” (Dow AgroSciences LLC, priority 2009, dated 2014).

Key:
Type in all cases: in vivo
Colletotricum lagenarium = test: Cucumber Anthracnose (COLLLA), foliar spray, percent disease control; conditions: foliar
[1] = test system: Pseudoperonospora cubensis; test: Cucumber Downy Mildew (PSPECU), foliar spray, percent disease control; conditions: foliar, read-out: PSPECU percent control
Cochliobolus sativus = test: Spot Blotch of Wheat (COCHSA), foliar spray, percent disease control; conditions: Bipolaris sorokiniana, foliar; read-out: COCHSA percent control
[2] = test system: DROSME, AEDSAE, LAPHEG, or HELIVI; test: Insecticidal activity, active if any of DROSME, AEDSAE, LAPHEG or HELIVI was controlled at 80% or more; conditions: read-out: >80% mortality on any insect species @ 4000 ppm

| Structure (SMILES) | pest or weed control at 200 µg/mL (Colletotricum lagenarium) [%] | pest or weed control at 200 µg/mL [1] [%] | pest or weed control at 200 µg/mL (Cochliobolus sativus) [%] | pest or weed control at 4000 ppm [2] [%] |
| --- | --- | --- | --- | --- |
| FC(F)(F)COc1ccnc(Oc2ccc(CCNc3ncnc4nccnc34)cc2)c1 [Compound 96, Pteridin-4-yl-(2-{4-[4-(2,2,2-trifluoroethoxy)-pyridin-2-yloxy]-phenyl}-ethyl)-amine] | 0 to 49 | 80 to 100 | 0 to 49 | > 80 |
| COc1cc(CCNc2ncnc3nccnc23)ccc1Oc1nccc(C(F)(F)F)n1 [Compound 97] | 0 to 49 | 80 to 100 | 0 to 49 | > 80 |
| FC(F)c1ccnc(Oc2ccc(CCNc3ncnc4nccnc34)cc2)c1 [Compound 101] | 80 to 100 | 80 to 100 | 0 to 49 | > 80 |
| Fc1cc(Oc2cc(C(F)(F)F)ccn2)ccc1CCNc1ncnc2nccnc12 [Compound 103] | 0 to 49 | 80 to 100 | 0 to 49 | > 80 |
| N#Cc1ccc(Oc2ccc(CCNc3ncnc4nccnc34)c(F)c2)nc1 [Compound 104] | 0 to 49 | 80 to 100 | 0 to 49 | > 80 |
| Fc1cnc(Oc2ccc(CCNc3ncnc4nccnc34)cc2)c(F)c1C(F)(F)F [Compound 106] | 0 to 49 | 80 to 100 | 0 to 49 | > 80 |
| Fc1cnc(Oc2ccc(CCNc3ncnc4nccnc34)cc2)c(F)c1 [Compound 107] | 0 to 49 | 80 to 100 | 0 to 49 | > 80 |
| Fc1cc(Oc2ccc(CCNc3ncnc4nccnc34)cc2)c(F)cn1 [Compound 108] | 0 to 49 | 80 to 100 | 0 to 49 | > 80 |
| Cc1cc(CCNc2ncnc3nccnc23)ccc1Oc1cc(C(F)(F)F)ccn1 [Compound 109] | 50 to 79 | 80 to 100 | 0 to 49 | > 80 |
| Brc1ccc(Oc2ccc(CCNc3ncnc4nccnc34)cc2)cn1 [Compound 110] | 0 to 49 | 80 to 100 | 0 to 49 | > 80 |
| FC(F)(F)c1ccncc1Oc1ccc(CCNc2ncnc3nccnc23)cc1 [Compound 111] | 50 to 79 | 80 to 100 | 0 to 49 | > 80 |
| Fc1c(F)c(C(F)(F)F)c(F)c(F)c1Oc1ccc(CCNc2ncnc3nccnc23)cc1 [Compound 112] | 0 to 49 | 80 to 100 | 0 to 49 | > 80 |
| Fc1cc(C(F)(F)F)ccc1Oc1ccc(CCNc2ncnc3nccnc23)cc1 [Compound 113] | 0 to 49 | 80 to 100 | 0 to 49 | > 80 |
| Fc1cc(Oc2ncc(C(F)(F)F)cc2F)ccc1CCNc1ncnc2nccnc12 [Compound 114] | 0 to 49 | 80 to 100 | 0 to 49 | > 80 |
| Fc1cc(C(F)(F)F)cnc1Oc1ccc(CCNc2ncnc3ncc(Cl)nc23)cc1 [Compound 118] | 0 to 49 | 0 to 49 | 0 to 49 | > 80 |
| Cc1cnc2ncnc(NCCc3ccc(Oc4cncc(Cl)c4C#N)cc3)c2n1 [Compound 120] | 0 to 49 | 0 to 49 | 0 to 49 | > 80 |
